The experiment has as its target T1, human GHRH receptor (hGHRHR) (Homo sapiens, UniProt Q02643).
T1 construct: expressed in transfected cells; host or cells: Human 293 cells
T1 sequence (Q02643 23-423): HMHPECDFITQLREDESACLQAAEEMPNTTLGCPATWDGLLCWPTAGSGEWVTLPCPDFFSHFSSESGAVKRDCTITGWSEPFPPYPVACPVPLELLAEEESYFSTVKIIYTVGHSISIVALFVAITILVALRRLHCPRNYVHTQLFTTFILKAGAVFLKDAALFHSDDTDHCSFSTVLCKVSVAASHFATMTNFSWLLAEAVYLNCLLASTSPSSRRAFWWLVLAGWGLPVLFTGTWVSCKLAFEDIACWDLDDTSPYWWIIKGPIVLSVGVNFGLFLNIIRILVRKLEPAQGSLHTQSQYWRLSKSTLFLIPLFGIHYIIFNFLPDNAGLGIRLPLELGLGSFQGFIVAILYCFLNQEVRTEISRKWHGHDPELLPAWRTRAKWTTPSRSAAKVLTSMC
Kind of experiment: GHRHR agonism measured by cAMP (HTRF) in human 293 cells expressing hGHRHR.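 Also: receptor expressed transiently or stably, cells stimulated in serum-free medium, EC50 from a non-linear dose-response fit, maximal response defined by reference GHRH stimulation.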 As to conditions: 30 min at RT. In kind it is cell-based. (In TR-FRET formats the signal depends on donor and acceptor labels being close together.)

Where a SMILES comes first, the peptide text is derived from it. Bridges are numbered along the chain shown (N, C = ends). [ ]: non-standard residue; d: D form. NMeY = CN[C@@H](Cc1ccc(O)cc1)C(=O)O; R8 = C=CCCCCCC[C@@](C)(N)C(=O)O; S5 = C=CCCC[C@](C)(N)C(=O)O; Nle = CCCC[C@H](N)C(=O)O

One may read the EC50 as the concentration that produces a half-maximal response. A high value points to a need for much substance. As to `CCCC[C@H](NC(=O)[C@@H](NC(=O)[C@H](CC(=O)O)NC(=O)[C@H](CCC(N)=O)NC(=O)[C@H](CC(C)C)NC(=O)[C@H](C)NC(=O)[C@H](CCCCN)NC(=O)[C@H](CCCNC(=N)N)NC(=O)[C@H](C)NC(=O)[C@H](CO)NC(=O)[C@H](CC(C)C)NC(=O)[C@H](CCC(N)=O)NC(=O)[C@H](C)NC(=O)[C@H](CC(C)C)NC(=O)[C@@H](NC(=O)[C@]1(C)CCCC=CCCCCCC[C@@](C)(NC(=O)[C@H](C)NC(=O)[C@H](CC(=O)O)NC(=O)[C@H](C)NC(=O)[C@H](Cc2ccc(O)cc2)NC)C(=O)N[C@@H](Cc2ccccc2)C(=O)N[C@@H]([C@@H](C)O)C(=O)N[C@@H](C)C(=O)N[C@@H](CO)C(=O)N[C@@H](Cc2ccc(O)cc2)C(=O)N[C@@H](CCCNC(=N)N)C(=O)N1)C(C)C)[C@@H](C)CC)C(=O)N[C@@H](CO)C(=O)N[C@@H](CCCNC(=N)N)C(N)=O` [SP-24] (H-[NMeY]ADA[R8]FTASYR[S5]VLAQLSARKALQDI[Nle]SR-NH2; staple 5-12), the 50% effective concentration (EC50) was in the range of 1 to 10 nM.

For `CCCC[C@H](NC(=O)[C@@H](NC(=O)[C@H](CC(=O)O)NC(=O)[C@H](CCC(N)=O)NC(=O)[C@H](CC(C)C)NC(=O)[C@H](C)NC(=O)[C@H](CCCCN)NC(=O)[C@H](CCCNC(=N)N)NC(=O)[C@H](C)NC(=O)[C@H](CO)NC(=O)[C@H](CC(C)C)NC(=O)[C@H](CCC(N)=O)NC(=O)[C@H](C)NC(=O)[C@H](CC(C)C)NC(=O)[C@@H](NC(=O)[C@H](CCCCN)NC(=O)[C@H](CCCNC(=N)N)NC(=O)[C@H](Cc1ccc(O)cc1)NC(=O)[C@H](CO)NC(=O)[C@H](C)NC(=O)[C@@H](NC(=O)[C@H](Cc1ccccc1)NC(=O)[C@@H](NC(=O)[C@H](C)NC(=O)[C@H](CC(=O)O)NC(=O)[C@H](C)NC(=O)[C@@H](N)Cc1ccc(O)cc1)[C@@H](C)CC)[C@@H](C)O)C(C)C)[C@@H](C)CC)C(=O)N[C@@H](CO)C(=O)N[C@@H](CCCNC(=N)N)C(N)=O` [SP-36] (H-YADAIFTASYRKVLAQLSARKALQDI[Nle]SR-NH2), the EC50 is 1 to 10 nM.

`CCCC[C@H](NC(=O)[C@@H](NC(=O)[C@]1(C)CCCC=CCCC[C@](C)(NC(=O)[C@H](CCCNC(=N)N)NC(=O)[C@H](C)NC(=O)[C@H](CO)NC(=O)[C@H](CC(C)C)NC(=O)[C@H](CCC(N)=O)NC(=O)[C@H](C)NC(=O)[C@H](CC(C)C)NC(=O)[C@@H](NC(=O)[C@H](CCCCN)NC(=O)[C@H](CCCNC(=N)N)NC(=O)[C@H](Cc2ccc(O)cc2)NC(=O)[C@H](CO)NC(=O)[C@H](C)NC(=O)[C@@H](NC(=O)[C@H](Cc2ccccc2)NC(=O)[C@@H](NC(=O)[C@H](C)NC(=O)[C@H](CC(=O)O)NC(=O)[C@H](C)NC(=O)[C@H](Cc2ccc(O)cc2)NC)[C@@H](C)CC)[C@@H](C)O)C(C)C)C(=O)N[C@@H](C)C(=O)N[C@@H](CC(C)C)C(=O)N[C@@H](CCC(N)=O)C(=O)N1)[C@@H](C)CC)C(=O)N[C@@H](CO)C(=O)N[C@@H](CCCNC(=N)N)C(N)=O` [SP-18] (H-[NMeY]ADAIFTASYRKVLAQLSAR[S5]ALQ[S5]I[Nle]SR-NH2; staple 21-25) gave an EC50 of 10 to 25 nM.

As to `CCCC[C@H](NC(=O)[C@@H](NC(=O)[C@]1(C)CCCC=CCCCCCC[C@@](C)(NC(=O)[C@H](CC(C)C)NC(=O)[C@H](CCC(N)=O)NC(=O)[C@H](C)NC(=O)[C@H](CC(C)C)NC(=O)[C@@H](NC(=O)[C@H](CCCCN)NC(=O)[C@H](CCCNC(=N)N)NC(=O)[C@H](Cc2ccc(O)cc2)NC(=O)[C@H](CO)NC(=O)[C@H](C)NC(=O)[C@@H](NC(=O)[C@H](Cc2ccccc2)NC(=O)[C@@H](NC(=O)[C@H](C)NC(=O)[C@H](CC(=O)O)NC(=O)[C@H](C)NC(=O)[C@H](Cc2ccc(O)cc2)NC)[C@@H](C)CC)[C@@H](C)O)C(C)C)C(=O)N[C@@H](C)C(=O)N[C@@H](CCCNC(=N)N)C(=O)N[C@@H](CCCCN)C(=O)N[C@@H](C)C(=O)N[C@@H](CC(C)C)C(=O)N[C@@H](CCC(N)=O)C(=O)N1)[C@@H](C)CC)C(=O)N[C@@H](CO)C(=O)N[C@@H](CCCNC(=N)N)C(N)=O` [SP-30] (H-[NMeY]ADAIFTASYRKVLAQL[R8]ARKALQ[S5]I[Nle]SR-NH2; staple 18-25), the EC50 fell in the range of 1 to 10 nM. The compound `CCCC[C@H](NC(=O)[C@@H](NC(=O)[C@H](CC(=O)O)NC(=O)[C@H](CCC(N)=O)NC(=O)[C@H](CC(C)C)NC(=O)[C@H](C)NC(=O)[C@H](CCCCN)NC(=O)[C@H](CCCNC(=N)N)NC(=O)[C@]1(C)CCCC=CCCCCCC[C@@](C)(NC(=O)[C@H](CCCNC(=N)N)NC(=O)[C@H](Cc2ccc(O)cc2)NC(=O)[C@H](CO)NC(=O)[C@H](C)NC(=O)[C@@H](NC(=O)[C@H](Cc2ccccc2)NC(=O)[C@@H](NC(=O)[C@H](C)NC(=O)[C@H](CC(=O)O)NC(=O)[C@H](C)NC(=O)[C@H](Cc2ccc(O)cc2)NC)[C@@H](C)CC)[C@@H](C)O)C(=O)N[C@@H](C(C)C)C(=O)N[C@@H](CC(C)C)C(=O)N[C@@H](C)C(=O)N[C@@H](CCC(N)=O)C(=O)N[C@@H](CC(C)C)C(=O)N[C@@H](CO)C(=O)N1)[C@@H](C)CC)C(=O)N[C@@H](CO)C(=O)N[C@@H](CCCNC(=N)N)C(N)=O` [SP-57] yielded an EC50 of 10 to 25 nM. The result for `CCCC[C@H](NC(=O)[C@@H](NC(=O)[C@H](CC(=O)O)NC(=O)[C@H](CCC(N)=O)NC(=O)[C@H](CC(C)C)NC(=O)[C@H](C)NC(=O)[C@H](CCCCN)NC(=O)[C@H](CCCNC(=N)N)NC(=O)[C@H](C)NC(=O)[C@H](CO)NC(=O)[C@H](CC(C)C)NC(=O)[C@H](CCC(N)=O)NC(=O)[C@H](C)NC(=O)[C@H](CC(C)C)NC(=O)[C@]1(C)CCCC=CCCC[C@](C)(NC(=O)[C@H](C)NC(=O)[C@@H](NC(=O)[C@H](Cc2ccccc2)NC(=O)[C@@H](NC(=O)[C@H](C)NC(=O)[C@H](CC(=O)O)NC(=O)[C@H](C)NC(=O)[C@H](Cc2ccc(O)cc2)NC)[C@@H](C)CC)[C@@H](C)O)C(=O)N[C@@H](Cc2ccc(O)cc2)C(=O)N[C@@H](CCCNC(=N)N)C(=O)N[C@@H](CCCCN)C(=O)N1)[C@@H](C)CC)C(=O)N[C@@H](CO)C(=O)N[C@@H](CCCNC(=N)N)C(N)=O` [SP-10] (H-[NMeY]ADAIFTA[S5]YRK[S5]LAQLSARKALQDI[Nle]SR-NH2; staple 9-13) reads 1 to 10 nM. In turn, `CCCC[C@H](NC(=O)[C@@H](NC(=O)[C@H](CC(=O)O)NC(=O)[C@H](CCC(N)=O)NC(=O)[C@H](CC(C)C)NC(=O)[C@H](C)NC(=O)[C@H](CCCCN)NC(=O)[C@H](CCCNC(=N)N)NC(=O)[C@H](C)NC(=O)[C@H](CO)NC(=O)[C@H](CC(C)C)NC(=O)[C@H](CCC(N)=O)NC(=O)[C@H](C)NC(=O)[C@H](CC(C)C)NC(=O)[C@@H](NC(=O)[C@]1(C)CCCC=CCCC[C@](C)(NC(=O)[C@@H](NC(=O)[C@H](Cc2ccccc2)NC(=O)[C@@H](NC(=O)[C@H](C)NC(=O)[C@H](CC(=O)O)NC(=O)[C@H](C)NC(=O)[C@H](Cc2ccc(O)cc2)NC)[C@@H](C)CC)[C@@H](C)O)C(=O)N[C@@H](CO)C(=O)N[C@@H](Cc2ccc(O)cc2)C(=O)N[C@@H](CCCNC(=N)N)C(=O)N1)C(C)C)[C@@H](C)CC)C(=O)N[C@@H](CO)C(=O)N[C@@H](CCCNC(=N)N)C(N)=O` [SP-9] (H-[NMeY]ADAIFT[S5]SYR[S5]VLAQLSARKALQDI[Nle]SR-NH2; staple 8-12) displayed a half-maximal effective concentration (EC50) of 1 to 10 nM.
